Assay results taken from patent US7196114B2, “Substituted 3-(benzoylureido) thiophene derivatives, processes for preparing them and their use” (Sanofi-Aventis Deutschland GmbH, priority 2003, dated 2007).
pIC50: −log10 of the molar value.

Tests used:
[1] = molecular target: T1, human glycogen phosphorylase a (Homo sapiens, UniProt P06737); experiment: Glycogen phosphorylase a activity test; format: biochemical; conditions: inhibition of GPa in vitro, reverse direction (glycogen synthesis from glucose 1-phosphate, released inorganic phosphate, absorption at 820 nm)
T1 sequence (P06737 1-847): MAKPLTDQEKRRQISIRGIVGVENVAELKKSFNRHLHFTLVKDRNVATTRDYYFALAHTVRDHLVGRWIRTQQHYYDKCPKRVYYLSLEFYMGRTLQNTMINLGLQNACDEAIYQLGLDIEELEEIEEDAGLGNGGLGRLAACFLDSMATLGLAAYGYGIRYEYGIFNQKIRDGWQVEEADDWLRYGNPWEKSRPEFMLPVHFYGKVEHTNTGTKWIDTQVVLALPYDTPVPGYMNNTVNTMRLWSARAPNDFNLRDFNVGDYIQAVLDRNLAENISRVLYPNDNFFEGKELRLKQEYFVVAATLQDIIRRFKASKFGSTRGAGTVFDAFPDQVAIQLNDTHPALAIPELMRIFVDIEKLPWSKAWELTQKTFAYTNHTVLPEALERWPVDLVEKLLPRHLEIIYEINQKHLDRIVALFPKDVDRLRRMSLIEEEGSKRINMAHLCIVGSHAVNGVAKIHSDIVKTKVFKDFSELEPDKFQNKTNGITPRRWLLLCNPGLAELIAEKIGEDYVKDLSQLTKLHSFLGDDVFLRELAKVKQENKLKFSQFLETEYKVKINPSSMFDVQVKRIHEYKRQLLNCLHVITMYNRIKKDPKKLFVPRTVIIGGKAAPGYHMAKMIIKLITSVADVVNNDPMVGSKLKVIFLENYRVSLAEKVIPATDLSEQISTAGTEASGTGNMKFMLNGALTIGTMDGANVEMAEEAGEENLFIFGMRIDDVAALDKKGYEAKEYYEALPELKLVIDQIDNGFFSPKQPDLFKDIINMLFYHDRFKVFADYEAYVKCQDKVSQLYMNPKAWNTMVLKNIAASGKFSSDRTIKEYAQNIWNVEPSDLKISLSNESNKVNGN

| Structure (SMILES) | melting point | pIC50 [1] |
| --- | --- | --- |
| NC(=O)c1sccc1NC(=O)NC(=O)c1cc(F)c(F)cc1Cl [Example 6] |  | 6.15 |
| CC(=O)c1sc(-c2ccccc2)cc1NC(=O)NC(=O)c1cc(F)c(F)cc1Cl [Example 15] | 204.8 °C | 6.77 |
| NC(=O)c1sc(-c2ccccc2)cc1NC(=O)NC(=O)c1cc(F)c(F)cc1Cl [Example 17] | > 300 °C | 7.52 |
| O=C(NC(=O)c1cc(F)c(F)cc1Cl)Nc1cc(-c2ccccc2)sc1C(=O)O [Example 21] | 226.5 °C | 8.00 |
| NC(=O)c1sc(-c2cccs2)cc1NC(=O)NC(=O)c1cc(F)c(F)cc1Cl [Example 23] | > 250 °C (dec.) | 7.30 |
| COc1ccc(-c2cc(NC(=O)NC(=O)c3cc(F)c(F)cc3Cl)c(C(N)=O)s2)cc1 [Example 24] | > 300 °C | 7.40 |
| O=C(NC(=O)c1cc(F)c(F)cc1Cl)Nc1cscc1-c1ccccc1 [Example 30] |  | 5.85 |
| O=C(NC(=O)c1ccc(F)cc1Cl)Nc1ccsc1-c1nnn[nH]1 [Example 33] | 219.8 °C | 7.10 |

Next, values leading:

| melting point | pIC50 [1] | Structure (SMILES) |
| --- | --- | --- |
| 236.1 °C | 7.52 | O=C(NC(=O)c1cc(F)c(F)cc1Cl)Nc1ccsc1-c1n[nH]c(=O)o1 [Example 1d, 1-(2-Chloro-4,5-difluorobenzoyl)-3-[2-(5-oxo-4,5-dihydro[1,3,4]oxadiazol-2-yl)thiophen-3-yl]urea] |
|  | 6.35 | Nc1nnc(-c2sccc2NC(=O)NC(=O)c2cc(F)c(F)cc2Cl)o1 [Example 2c, 1-[2-(5-Amino[1,3,4]oxadiazol-2-yl)thiophen-3-yl]-3-(2-chloro-4,5-difluorobenzoyl)urea] |
| 227.7 °C | 8.00 | O=C(NC(=O)c1cc(F)c(F)cc1Cl)Nc1cc(-c2ccc(F)cc2)sc1C(=O)O [Example 3b, 3-[3-(2-Chloro-4,5-difluorobenzoyl)ureido]-5-(4-fluorophenyl)thiophene-2-carboxylic acid] |
| 219.9 °C | 6.96 | O=C(NC(=O)c1cc(F)c(F)cc1Cl)Nc1cc(S(=O)(=O)N2CCCCC2)sc1N1CCC(C(=O)O)CC1 [Example 4d, 1-[3-[3-(2-Chloro-4,5-difluorobenzoyl)ureido]-5-(piperidine-1-sulfonyl)-thiophen-2-yl]piperidine-4-carboxylic acid] |
